# Patent US4977153A, “3-aminopropyloxyphenyl derivatives, pharmaceutical compositions containing them and method for the therapy of diseases” (Louis; William J., priority 1985, dated 1990)
# Like-named read-outs stand apart in the source and are kept apart here.
# What was measured:
# [1] = biological target: T1, beta adrenoceptor (guinea pig atrium) (Cavia porcellus, UniProt H0W3H1); assay: beta adrenoceptor blocking activity in the spontaneously beating guinea pig atrium (inhibition of positive chronotropic isoproterenol effect); format: cell-based
# T1 construct: in the spontaneously beating guinea pig atrium; from tissue; host or cells: guinea pig atrium, spontaneously beating
# T1 sequence (H0W3H1 1-470): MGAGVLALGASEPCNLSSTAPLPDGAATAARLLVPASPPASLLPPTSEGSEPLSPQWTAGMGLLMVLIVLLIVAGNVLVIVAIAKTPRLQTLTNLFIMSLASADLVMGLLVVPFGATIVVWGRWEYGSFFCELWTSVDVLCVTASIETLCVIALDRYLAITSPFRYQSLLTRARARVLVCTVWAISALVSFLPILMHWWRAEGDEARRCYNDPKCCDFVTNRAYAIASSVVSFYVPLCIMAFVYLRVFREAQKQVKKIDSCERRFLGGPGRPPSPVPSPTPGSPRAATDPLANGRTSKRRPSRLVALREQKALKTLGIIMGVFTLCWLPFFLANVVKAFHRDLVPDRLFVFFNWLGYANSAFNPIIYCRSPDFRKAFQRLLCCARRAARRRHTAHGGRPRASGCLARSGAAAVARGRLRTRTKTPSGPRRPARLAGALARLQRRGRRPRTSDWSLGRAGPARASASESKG
# [2] = test system: resting heart rate in the pithed rat; assay: intrinsic sympathomimetic activity: increase in resting heart rate in the pithed rat; format: in vivo; conditions: maximum effect of cumulative doses of drug up to 3 mg/kg
# [3] = biological target: T2, beta adrenoceptor (guinea pig trachea) (Cavia porcellus, UniProt Q8K4Z4); assay: inhibition of isoproterenol-induced relaxation in guinea pig tracheal preparations (cardioselectivity); format: cell-based; conditions: guinea pig trachea, in words
# T2 construct: tracheal preparations of the guinea pig; from tissue; host or cells: guinea pig tracheal muscle
# T2 sequence (Q8K4Z4 whole entry): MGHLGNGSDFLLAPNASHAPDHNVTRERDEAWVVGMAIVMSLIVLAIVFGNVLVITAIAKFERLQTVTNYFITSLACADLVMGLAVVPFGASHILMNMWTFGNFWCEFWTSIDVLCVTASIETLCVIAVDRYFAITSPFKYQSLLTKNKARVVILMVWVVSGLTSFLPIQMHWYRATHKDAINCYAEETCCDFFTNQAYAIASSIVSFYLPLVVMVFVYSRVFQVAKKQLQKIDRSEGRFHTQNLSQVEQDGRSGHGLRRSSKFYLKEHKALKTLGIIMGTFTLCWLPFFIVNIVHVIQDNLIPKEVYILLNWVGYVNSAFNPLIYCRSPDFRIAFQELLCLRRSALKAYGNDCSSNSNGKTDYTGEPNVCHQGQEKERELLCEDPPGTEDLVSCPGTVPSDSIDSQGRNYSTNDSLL
# [4] = biological target: T3, beta adrenoceptor (heart) (Rattus norvegicus, UniProt P18090); assay: inhibition of isoproterenol-induced tachycardia in the pithed rat; format: in vivo; conditions: read-out: Pithed Rat Effective Dose (ID50)
# T3 construct: from tissue; host or cells: heart in the whole animal (pithed rat, in vivo)
# T3 sequence (P18090 whole entry): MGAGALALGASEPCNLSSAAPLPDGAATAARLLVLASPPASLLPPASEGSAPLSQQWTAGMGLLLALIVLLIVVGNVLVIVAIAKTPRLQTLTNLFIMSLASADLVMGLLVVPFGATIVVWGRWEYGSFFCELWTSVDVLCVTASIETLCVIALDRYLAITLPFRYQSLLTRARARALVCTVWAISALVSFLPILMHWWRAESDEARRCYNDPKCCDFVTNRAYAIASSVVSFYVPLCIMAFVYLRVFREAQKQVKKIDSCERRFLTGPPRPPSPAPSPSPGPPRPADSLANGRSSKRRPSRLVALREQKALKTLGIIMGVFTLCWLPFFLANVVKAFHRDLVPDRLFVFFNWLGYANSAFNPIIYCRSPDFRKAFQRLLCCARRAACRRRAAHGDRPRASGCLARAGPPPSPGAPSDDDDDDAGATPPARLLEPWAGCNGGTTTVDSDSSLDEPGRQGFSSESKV
# [5] = test system: beta adrenoceptor (guinea pig trachea); assay: inhibition of isoproterenol-induced relaxation in guinea pig tracheal preparations (cardioselectivity); format: cell-based; conditions: selectivity index, guinea pig trachea vs atrium
# [6] = test system: resting heart rate in the pithed rat; conditions: in words; cited from earlier work
# [7] = in words; cited from earlier work
# [8] = dose which doubles the concentration of isoproterenol needed to elicit a 50% increase in heart rate, spontaneously beating guinea pig atrium, read-out: Guinea Pig Atrium, Effective Molar Dose (ID50)
# [9] = inhibition of isoproterenol-induced tachycardia, pithed rat
structure (smiles),measurement,setting,value
"CC(C)NCC(O)COc1ccc(CC(N)=O)cc1 (stereo not drawn) [Atenolol, reference compound]",Kb,[1],200 nM
same,Maximum Change in Resting Heart Rate in the Pithed Rat,[2],0
same,blocking actions of the isoproterenol response in the trachea,[3],significant blocking actions of the isoproterenol response in the trachea
same,ED50,[4]; rat,0.03 mg/kg
"CC(C)NCC(O)COc1ccc(CCOCC2CC2)cc1 (stereo not drawn) [Betaxolol, reference compound]",Maximum Change in Resting Heart Rate in the Pithed Rat,[2],0
"CCCOCCOc1ccc(OCC(O)CNCCNC(=O)Nc2ccc3[nH]ccc3c2)c(C#N)c1 (stereo not drawn) [Example 1, N-[2-[3-[2-cyano-4-(2-propoxyethoxy)phenoxy]-2-hydroxypropylamino]-ethyl]-N'-(1H-indol-5-yl)-urea]",Kb,[1]; [8],3 nM
same,Maximum Change in Resting Heart Rate in the Pithed Rat,[2],+101
same,selectivity (cardiac atrial vs tracheal),[5],17000
same,ED50,[4]; [9],0.002 mg/kg
COCCOc1ccc(OCC(O)CNCCNC(=O)Nc2ccc3[nH]ccc3c2)c(C#N)c1 (stereo not drawn) [Example 6],Kb,[1]; [8],13 nM
CCCOCCOc1ccc(OCC(O)CNCCNC(=O)Cc2ccc3[nH]ccc3c2)c(C#N)c1 (stereo not drawn) [Example 9],Kb,[1]; [8],25 nM
CCCOCCOc1ccc(OCC(O)CNCCNC(=O)Cc2ccsc2)c(C#N)c1 (stereo not drawn) [Example 11],Kb,[1]; [8],12 nM
same,Maximum Change in Resting Heart Rate in the Pithed Rat,[2],+66
CCCCOCCOc1ccc(OCC(O)CNCCNC(=O)Nc2ccc3[nH]ccc3c2)c(C#N)c1 (stereo not drawn) [Example 13],Maximum Change in Resting Heart Rate in the Pithed Rat,[2],+105
N#Cc1cc(OCCOCCc2ccccc2)ccc1OCC(O)CNCCNC(=O)Nc1ccc2[nH]ccc2c1 (stereo not drawn) [Example 14],Kb,[1]; [8],10 nM
N#Cc1cc(OCCOCc2ccc(F)cc2)ccc1OCC(O)CNCCNC(=O)Nc1ccc2[nH]ccc2c1 (stereo not drawn) [Example 19],Kb,[1]; [8],100 nM
same,Maximum Change in Resting Heart Rate in the Pithed Rat,[2],+51
same,ED50,[4]; [9],0.1 mg/kg
CCCOCCOc1ccc(OCC(O)CNCCNC(=O)c2ccc3[nH]ccc3c2)c(C#N)c1 (stereo not drawn) [Example 20],Kb,[1]; [8],50 nM
O=C(NCCNCC(O)COc1ccc(OCCOCC2CC2)cc1)c1ccco1 (stereo not drawn) [Example 23],Maximum Change in Resting Heart Rate in the Pithed Rat,[2],+42
same,ED50,[4]; [9],0.03 mg/kg
CCCOCCOc1ccc(OCC(O)CNCCNC(=O)c2ccoc2)cc1 (stereo not drawn) [Example 28],ED50,[4]; [9],0.003 mg/kg
CCCOCCOc1ccc(OCC(O)CN[C@H](C)CNC(=O)c2ccco2)cc1 (stereo partly drawn) [Example 29],Kb,[1]; [8],30 nM
same,ED50,[4]; [9],0.05 mg/kg
CCCOCCOc1ccc(OCC(O)CN[C@H](C)CNC(=O)c2ccco2)c(F)c1 (stereo partly drawn) [Example 33],Kb,[1]; [8],8 nM
"CC(C)NCC(O)COc1cccc2[nH]ccc12 (stereo not drawn) [Pindolol, reference compound]",Maximum Change in Resting Heart Rate in the Pithed Rat,[2],+89
CC(C)NCC(O)COc1cccc2ccccc12 (stereo not drawn) [Propranolol],"intrinsic sympathomimetic activity (ISA), known drug",[6],no ISA
same,Maximum Change in Resting Heart Rate in the Pithed Rat,[2],0
same,"plasma cholesterol effect, known drug",[7],elevated plasma cholesterol
same,"rebound hypersensitivity after cessation, known drug",[7],rebound hypersensitivity occurring after cessation
